Source: the supplement of paper PMC10307832

Compound: O=C(c1cc(Cc2n[nH]c(=O)c3ccccc23)ccc1F)N1CCN(C(=O)C2CC2)CC1 [Olaparib] + CC(=O)Nc1cccc(-n2c(=O)n(C3CC3)c(=O)c3c(Nc4ccc(I)cc4F)n(C)c(=O)c(C)c32)c1 [Trametinib] (partner 0.02 µM)
Test: relative viability (nuclei count vs DMSO), 5 days (fraction); higher = more cells survive
Settings: first compound 8 µM
How it was run: (§1)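 Medians of duplicate plates are given as relative viability. That measure is the nuclei count in treated wells divided by the count in vehicle wells. Counts were taken on 4× images of lung cancer cell lines in 1536-well plates, 5 days after pin-tool dosing the day after seeding with one drug alone or a fixed anchor-drug dose plus five library-drug doses (not always all listed) in √10 steps.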

Cell Line	relative viability
NCI-H1651	0.504
NCI-H1666	0.765
NCI-H1734	0.565
NCI-H1755	0.725
NCI-H1915	0.206
NCI-H1944	0.328
NCI-H1975	0.307
NCI-H1993	0.384
NCI-H2009	0.267
NCI-H2023	0.489
NCI-H2085	0.523
NCI-H2087	0.188
NCI-H2126	0.596
NCI-H2228	0.521
NCI-H2347	0.248
NCI-H2405	0.641

Compound: O=C(c1cc(Cc2n[nH]c(=O)c3ccccc23)ccc1F)N1CCN(C(=O)C2CC2)CC1 [Olaparib] + Cc1cc(Nc2cc(N3CCN(C)CC3)nc(Sc3ccc(NC(=O)C4CC4)cc3)n2)n[nH]1 [Tozasertib] (partner 0.1 µM)
Test: as above
Settings: first compound 0.08 µM
How it was run: as §1

Cell Line	relative viability
LOU-NH91	0.729
LU99A	0.299
LXF-289	0.232
NCI-H23	0.391
NCI-H322M	0.484
NCI-H358	0.101
NCI-H441	0.602
NCI-H460	0.485
NCI-H520	0.39
NCI-H596	0.962
NCI-H647	0.253
NCI-H650	0.974
NCI-H661	0.346
NCI-H727	0.704
NCI-H838	0.277
NCI-H1355	0.697
NCI-H1395	0.816

Cell Line	relative viability
NCI-H1437	0.424
NCI-H1651	0.677
NCI-H1666	0.619
NCI-H1734	0.25
NCI-H1755	0.611
NCI-H1915	0.447
NCI-H1944	0.217
NCI-H1975	0.821
NCI-H1993	0.546
NCI-H2009	0.81
NCI-H2023	0.357
NCI-H2085	0.943
NCI-H2087	0.31
NCI-H2126	0.915
NCI-H2228	0.324
NCI-H2347	0.548
NCI-H2405	0.807

Same assay, conditions: first compound 0.253 µM

Cell Line	relative viability
LOU-NH91	0.674
LU99A	0.292
LXF-289	0.146
NCI-H23	0.335
NCI-H322M	0.471
NCI-H358	0.119
NCI-H441	0.561
NCI-H460	0.415
NCI-H520	0.389
NCI-H596	0.707
NCI-H647	0.258
NCI-H650	0.72
NCI-H661	0.355
NCI-H727	0.581
NCI-H838	0.239
NCI-H1355	0.552
NCI-H1395	0.657

Cell Line	relative viability
NCI-H1437	0.393
NCI-H1651	0.638
NCI-H1666	0.733
NCI-H1734	0.249
NCI-H1755	0.547
NCI-H1915	0.372
NCI-H1944	0.198
NCI-H1975	0.715
NCI-H1993	0.537
NCI-H2009	0.678
NCI-H2023	0.298
NCI-H2085	0.756
NCI-H2087	0.204
NCI-H2126	0.794
NCI-H2228	0.207
NCI-H2347	0.48
NCI-H2405	0.722

Same assay, conditions: first compound 2.53 µM

Cell Line	relative viability
LOU-NH91	0.637
LU99A	0.261
LXF-289	0.159
NCI-H23	0.397
NCI-H322M	0.473
NCI-H358	0.106
NCI-H441	0.639
NCI-H460	0.356
NCI-H520	0.467
NCI-H596	0.813
NCI-H647	0.407
NCI-H650	0.656
NCI-H661	0.34
NCI-H727	0.674
NCI-H838	0.265
NCI-H1355	0.562
NCI-H1395	0.598

Cell Line	relative viability
NCI-H1437	0.394
NCI-H1651	0.439
NCI-H1666	0.583
NCI-H1734	0.251
NCI-H1755	0.548
NCI-H1915	0.368
NCI-H1944	0.228
NCI-H1975	0.85
NCI-H1993	0.557
NCI-H2009	0.761
NCI-H2023	0.32
NCI-H2085	0.847
NCI-H2087	0.324
NCI-H2126	0.869
NCI-H2228	0.201
NCI-H2347	0.483
NCI-H2405	0.66

Same assay, conditions: first compound 8 µM

Cell Line	relative viability
LOU-NH91	0.628
LU99A	0.22
LXF-289	0.156
NCI-H23	0.232
NCI-H322M	0.434
NCI-H358	0.116
NCI-H441	0.541
NCI-H460	0.184
NCI-H520	0.411
NCI-H596	0.617
NCI-H647	0.255
NCI-H650	0.541
NCI-H661	0.343
NCI-H727	0.486
NCI-H838	0.269
NCI-H1355	0.444
NCI-H1395	0.548

Cell Line	relative viability
NCI-H1437	0.379
NCI-H1651	0.257
NCI-H1666	0.515
NCI-H1734	0.251
NCI-H1755	0.531
NCI-H1915	0.274
NCI-H1944	0.231
NCI-H1975	0.699
NCI-H1993	0.521
NCI-H2009	0.648
NCI-H2023	0.238
NCI-H2085	0.753
NCI-H2087	0.18
NCI-H2126	0.83
NCI-H2228	0.136
NCI-H2347	0.54
NCI-H2405	0.654
